How the values were obtained:
MS = test: Case report Example 2: course of MS (symptoms, brain MRI); type: in vivo, human
Description: A person was well, when they developed numbness and tingling in their lower extremities. A magnetic resonance imaging (MRI) of the brain, along with spinal fluid findings, were consistent with MS. […] From then, they were asymptomatic except for three exacerbations which also responded to intravenous methyl prednisone. They took no other medications for MS.
(§1) They were placed on interferon β-1a. […], they developed weakness in their lower extremities and was switched to natalizumab. […] […], independent of their MS, they developed NSCLC with a genetic mutation. Natalizumab was discontinued and erlotinib was initiated at an oral dose of 150 mg daily. […] Brain MRIs with contrast two months prior to starting erlotinib, immediately prior to starting erlotinib, and after three and six months on erlotinib are unchanged.

multiple sclerosis = test: Example 5: group of patients with multiple sclerosis, placebo controlled; type: in vivo, human; conditions: erlotinib 150, gefitinib 250, icotinib 300 mg daily for several weeks, versus placebo
Experimental: (§2) A group of patients with multiple sclerosis is identified. The patients are administered erlotinib (150 mg daily), gefitinib (250 mg daily), icotinib (300 mg daily), or placebo in for several weeks. […] Following clinical improvement, the dose of erlotinib, gefitinb, or icotinib is reduced to a maintenance dose as low as 25 mg, 50 mg, or 75 mg daily, respectively.

insulin resistance = test: Example 6: group of patients with insulin resistance, placebo controlled; type: in vivo, human; conditions: erlotinib 150, gefitinib 250, icotinib 300 mg daily for several weeks, versus placebo
Experimental: as §2, with “insulin resistance” for “multiple sclerosis”

psoriasis = test: Example 7: group of patients with psoriasis, placebo controlled; type: in vivo, human; conditions: erlotinib 150, gefitinib 250, icotinib 300 mg daily for several weeks, versus placebo
Experimental: as §2, with “psoriasis” for “multiple sclerosis”

[1] = system: metastatic NSCLC with a genetic mutation; test: Case report Example 1: metastatic NSCLC patient on daily oral erlotinib; type: in vivo, human; conditions: person, 150 mg daily oral
Description: (§3) A person, whose child has a history of recurrent-remitting MS, developed severe back pain. […] After one year, their serum level of antithyroid peroxidase was reduced from 1719 to 366.

mild plaque psoriasis = test: Case report Example 1: psoriasis under erlotinib; type: in vivo, human; conditions: person, 150 mg daily oral
Description: as §3

[2] = system: type 2 insulin requiring diabetes mellitus; test: Case report Example 1: diabetes / insulin requirement under erlotinib; type: in vivo, human; conditions: person, 150 mg daily oral
Description: as §3

Hashimoto's thyroiditis = test: Case report Example 1: Hashimoto's thyroiditis, serum antithyroid peroxidase under erlotinib; type: in vivo, human; conditions: person; 150 mg daily oral; after one year; reduced from 1719 before treatment
Description: as §3

[3] = system: NSCLC with a genetic mutation; test: Case report Example 2: NSCLC in MS patient on erlotinib; type: in vivo, human; conditions: person; oral 150 mg daily; after six months
Experimental: as §1

rheumatoid arthritis = test: Example 3: patient with rheumatoid arthritis; type: in vivo, human; conditions: 150 mg daily for several weeks
Experimental: A patient is diagnosed with rheumatoid arthritis. Erlotinib is administered in a dose of 150 mg daily for several weeks.

Crohn's disease = test: Example 4: patient with Crohn's disease; type: in vivo, human; conditions: 150 mg daily for several weeks
Experimental: A patient is diagnosed with Crohn's disease. Erlotinib is administered in a dose of 150 mg daily for several weeks.

[4] = on the face, scalp, neck, and back; cited from earlier work

Q: For natalizumab, which MS symptoms (MS; patient, since the switch) is on record?
A: The MS symptoms was “asymptomatic since that time”.

Q: Which clinical outcome (multiple sclerosis) does the source give for `C#Cc1cccc(Nc2ncnc3cc4c(cc23)OCCOCCOCCO4)c1` [icotinib] here?
A: The clinical outcome was “Clinical improvement is seen”.

Q: And the clinical outcome (insulin resistance)?
A: The clinical outcome was “Clinical improvement is seen”.

Q: And the clinical outcome (psoriasis)?
A: Its clinical outcome is “Clinical improvement is seen”.

Q: For `C#Cc1cccc(Nc2ncnc3cc(OCCOC)c(OCCOC)cc23)c1` [erlotinib], which “evidence of NSCLC” value ([1]; after seven months) is on record?
A: The value was “no evidence of NSCLC or psoriasis”.

Q: What about the severe back pain ([1]; three weeks after starting) of the same compound?
A: Its severe back pain is “their pain abated”.

Q: And the evidence of psoriasis (mild plaque psoriasis; after seven months)?
A: Its evidence of psoriasis is “no evidence of NSCLC or psoriasis”.

Q: What about the psoriasis (mild plaque psoriasis; three weeks after starting) of the same compound?
A: The psoriasis was “their psoriasis cleared”.

Q: What about the “insulin requirement / new medication to control diabetes” value ([2]; after seven months) of the same compound?
A: Its value is “remains off of insulin and has not required any new medication to control their diabetes”.

Q: And the insulin requirement ([2]; after ten weeks)?
A: The insulin requirement was “no longer required insulin”.

Q: What about the “serum level of antithyroid peroxidase” value (Hashimoto's thyroiditis) of the same compound?
A: The value was 366.

Q: What about the cancer status [3] of the same compound?
A: Its cancer status is “total remission”.

Q: And the “enhancing lesions on brain MRI” value (MS; person with MS, oral 150 mg daily, after three and six months)?
A: The value was “no enhancing lesions”.

Q: And the “brain MRIs with contrast” value (MS; person with MS, oral 150 mg daily, after three and six months versus before starting)?
A: The value was “unchanged”.

Q: What about the clinical outcome (rheumatoid arthritis) of the same compound?
A: The clinical outcome was “Clinical improvement is seen”.

Q: And the clinical outcome (Crohn's disease)?
A: The clinical outcome was “Clinical improvement is seen”.

Q: What about the clinical outcome (multiple sclerosis) of the same compound?
A: The clinical outcome was “Clinical improvement is seen”.

Q: What about the clinical outcome (insulin resistance) of the same compound?
A: The clinical outcome was “Clinical improvement is seen”.

Q: And the clinical outcome (psoriasis)?
A: The clinical outcome was “Clinical improvement is seen”.

Q: What about the “most common adverse effect” value [4] of the same compound?
A: Its value is “mild to moderate reversible papulopustular skin eruption”.

Q: With `COc1cc2ncnc(Nc3ccc(F)c(Cl)c3)c2cc1OCCCN1CCOCC1` [gefitinib] as the compound, how does the clinical outcome (multiple sclerosis) read?
A: Its clinical outcome is “Clinical improvement is seen”.

Q: What about the clinical outcome (insulin resistance) of the same compound?
A: The clinical outcome was “Clinical improvement is seen”.

Q: What about the clinical outcome (psoriasis) of the same compound?
A: The clinical outcome was “Clinical improvement is seen”.

Q: Which “response of MS at first presentation” value (MS; patient one, intravenous) does the source give for methyl prednisone here?
A: Its value is “achieved total remission”.

Q: And the “response of three MS exacerbations” value (MS; patient, intravenous)?
A: The value was “responded”.

From patent US20130281448A1, “SMALL MOLECULE COMPOUNDS FOR TARGETING INFLAMMATORY CONDITIONS” (priority 2012, published 2013)
